{"source": "paper PMC5218480", "about": "(PLoS ONE, 2017)", "tested_on": "MV-4-11 cells", "assay": "Gene expression microarray analysis (Affymetrix PrimeView) and GSEA", "type": "cell-based, human", "parameters": "RFU PODN (11730768_x_at) / Fold change /veh PODN (11730768_x_at) / RFU LINC00158 (11744669_a_at) / Fold change /veh LINC00158 (11744669_a_at) / RFU DUSP10 (11751237_a_at) / Fold change /veh DUSP10 (11751237_a_at) / RFU ID3 (11757404_x_at) / Fold change /veh ID3 (11757404_x_at) / RFU PLEKHG5 (11737974_s_at) / Fold change /veh PLEKHG5 (11737974_s_at) / RFU LRRC4B (11730491_at) / Fold change /veh LRRC4B (11730491_at) / RFU GIMAP4 (11747438_a_at) / Fold change /veh GIMAP4 (11747438_a_at) / RFU KRT8 (11758183_x_at) / Fold change /veh KRT8 (11758183_x_at) / RFU CNN1 (11734310_a_at) / Fold change /veh CNN1 (11734310_a_at) / RFU VPS37D (11726825_at) / Fold change /veh VPS37D (11726825_at) / RFU C10orf10 (11716522_x_at) / Fold change /veh C10orf10 (11716522_x_at) / RFU KIR2DL2 /// KIR2DL4 /// KIR2DL5A /// KIR2DL5B /// KIR2DS1 /// KIR2DS2 /// KIR2DS3 /// KIR2DS4 /// KIR3DL3 /// KIR3DL3 /// KIR3DS1 (11738374_at) / Fold change /veh KIR2DL2 /// KIR2DL4 /// KIR2DL5A /// KIR2DL5B /// KIR2DS1 /// KIR2DS2 /// KIR2DS3 /// KIR2DS4 /// KIR3DL3 /// KIR3DL3 /// KIR3DS1 (11738374_at) / RFU C1QL1 (11718748_at) / Fold change /veh C1QL1 (11718748_at) / RFU TMPRSS4 (11747572_a_at) / Fold change /veh TMPRSS4 (11747572_a_at) / RFU HAMP (11756126_x_at) / Fold change /veh HAMP (11756126_x_at) / RFU RNFT2 (11725882_a_at) / Fold change /veh RNFT2 (11725882_a_at) / RFU NR4A2 (11747474_a_at) / Fold change /veh NR4A2 (11747474_a_at) / RFU ABCC12 (11746883_a_at) / Fold change /veh ABCC12 (11746883_a_at) / RFU TMEM136 (11760407_x_at) / Fold change /veh TMEM136 (11760407_x_at) / RFU CLDN22 /// WWC2 (11732394_at) / Fold change /veh CLDN22 /// WWC2 (11732394_at) / RFU HLA-DPB1 (11760878_x_at) / Fold change /veh HLA-DPB1 (11760878_x_at) / RFU SPINT1 (11716480_a_at) / Fold change /veh SPINT1 (11716480_a_at) / RFU GAP43 (11754022_s_at) / Fold change /veh GAP43 (11754022_s_at) / RFU A4GNT (11735810_at) / Fold change /veh A4GNT (11735810_at) / RFU PRB3 (11715151_x_at) / Fold change /veh PRB3 (11715151_x_at) / RFU TUBB4B (11761932_at) / Fold change /veh TUBB4B (11761932_at) / RFU CAPN14 (11732068_a_at) / Fold change /veh CAPN14 (11732068_a_at) / RFU TMCC2 (11721928_a_at) / Fold change /veh TMCC2 (11721928_a_at) / RFU IRGQ (11745062_a_at) / Fold change /veh IRGQ (11745062_a_at) / RFU FAM174B (11720279_a_at) / Fold change /veh FAM174B (11720279_a_at) / RFU TMPRSS4 (11748680_a_at) / Fold change /veh TMPRSS4 (11748680_a_at) / RFU FAM212B (11763350_a_at) / Fold change /veh FAM212B (11763350_a_at) / RFU PLEKHG5 (11743358_a_at) / Fold change /veh PLEKHG5 (11743358_a_at) / RFU ZSCAN30 (11745921_a_at) / Fold change /veh ZSCAN30 (11745921_a_at) / RFU CMKLR1 (11741424_a_at) / Fold change /veh CMKLR1 (11741424_a_at) / RFU LOC101060620 /// MAPK8IP1 (11723275_at) / Fold change /veh LOC101060620 /// MAPK8IP1 (11723275_at) / RFU SPTSSB (11747773_x_at) / Fold change /veh SPTSSB (11747773_x_at) / RFU PRSS12 (11739890_at) / Fold change /veh PRSS12 (11739890_at) / RFU BIN1 (11741810_x_at) / Fold change /veh BIN1 (11741810_x_at) / RFU WNT11 (11732464_a_at) / Fold change /veh WNT11 (11732464_a_at) / RFU C10orf10 (11716521_a_at) / Fold change /veh C10orf10 (11716521_a_at) / RFU C5orf56 (11738089_at) / Fold change /veh C5orf56 (11738089_at) / RFU CYB561 (11721691_x_at) / Fold change /veh CYB561 (11721691_x_at) / RFU ANKRD19P (11752326_a_at) / Fold change /veh ANKRD19P (11752326_a_at) / RFU OR2T12 /// OR2T33 /// OR2T8 (11738714_s_at) / Fold change /veh OR2T12 /// OR2T33 /// OR2T8 (11738714_s_at) / RFU VCAN (11748164_a_at) / Fold change /veh VCAN (11748164_a_at) / RFU JSRP1 (11732532_at) / Fold change /veh JSRP1 (11732532_at) / RFU KRTAP10-11 (11738290_x_at) / Fold change /veh KRTAP10-11 (11738290_x_at) / RFU MYO3A (11730013_a_at) / Fold change /veh MYO3A (11730013_a_at) / RFU EBF3 (11725865_a_at) / Fold change /veh EBF3 (11725865_a_at) / RFU CAMK2N1 (11719241_x_at) / Fold change /veh CAMK2N1 (11719241_x_at) / RFU C5orf56 (11738088_a_at) / Fold change /veh C5orf56 (11738088_a_at) / RFU OLFML3 (11715873_a_at) / Fold change /veh OLFML3 (11715873_a_at) / RFU LOC100653217 /// NTM (11731650_a_at) / Fold change /veh LOC100653217 /// NTM (11731650_a_at) / RFU MAPK11 (11762145_a_at) / Fold change /veh MAPK11 (11762145_a_at) / RFU FIZ1 (11724087_x_at) / Fold change /veh FIZ1 (11724087_x_at) / RFU OASL (11726364_x_at) / Fold change /veh OASL (11726364_x_at) / RFU SOX15 (11748057_x_at) / Fold change /veh SOX15 (11748057_x_at) / RFU CD79A (11719716_a_at) / Fold change /veh CD79A (11719716_a_at) / RFU HIST1H1D (11736915_at) / Fold change /veh HIST1H1D (11736915_at) / RFU CASKIN2 (11723855_a_at) / Fold change /veh CASKIN2 (11723855_a_at) / RFU LOC730098 (11760151_x_at) / Fold change /veh LOC730098 (11760151_x_at) / RFU OR4N2 (11742367_at) / Fold change /veh OR4N2 (11742367_at) / RFU PRRT2 (11749266_a_at) / Fold change /veh PRRT2 (11749266_a_at) / RFU SNX32 (11753110_a_at) / Fold change /veh SNX32 (11753110_a_at) / RFU CDHR5 (11726645_a_at) / Fold change /veh CDHR5 (11726645_a_at) / RFU RCAN1 (11760418_a_at) / Fold change /veh RCAN1 (11760418_a_at) / RFU FAM167A (11723789_a_at) / Fold change /veh FAM167A (11723789_a_at) / RFU FAM26E (11764081_at) / Fold change /veh FAM26E (11764081_at) / RFU ISYNA1 (11749810_s_at) / Fold change /veh ISYNA1 (11749810_s_at) / RFU ACY1 (11761880_at) / Fold change /veh ACY1 (11761880_at) / RFU 11764098_at / Fold change /veh 11764098_at / RFU SAMD14 (11745864_x_at) / Fold change /veh SAMD14 (11745864_x_at) / RFU NPB (11741838_a_at) / Fold change /veh NPB (11741838_a_at) / RFU TMPRSS6 (11731388_a_at) / Fold change /veh TMPRSS6 (11731388_a_at) / RFU KRTAP10-2 (11738614_at) / Fold change /veh KRTAP10-2 (11738614_at) / RFU ARHGAP8 /// PRR5-ARHGAP8 (11727945_x_at) / Fold change /veh ARHGAP8 /// PRR5-ARHGAP8 (11727945_x_at) / RFU KRTAP5-7 /// NADSYN1 (11734609_at) / Fold change /veh KRTAP5-7 /// NADSYN1 (11734609_at) / RFU RASL12 (11751679_a_at) / Fold change /veh RASL12 (11751679_a_at) / RFU CDKN2B (11736163_a_at) / Fold change /veh CDKN2B (11736163_a_at) / RFU PRF1 (11729649_at) / Fold change /veh PRF1 (11729649_at) / RFU, ZNF638 /// ZNF638-IT1 / Fold change vs veh, ZNF638 /// ZNF638-IT1 / RFU, PANK3 / Fold change vs veh, PANK3 / RFU, SH3YL1 / Fold change vs veh, SH3YL1 / RFU, ZEB2 / Fold change vs veh, ZEB2 / RFU, NRIP1 / Fold change vs veh, NRIP1 / RFU, PTTG1IP / Fold change vs veh, PTTG1IP / RFU, CAPN2 / Fold change vs veh, CAPN2 / RFU, MED14 / Fold change vs veh, MED14 / RFU, SNORA58 / Fold change vs veh, SNORA58 / RFU, C1orf63 / Fold change vs veh, C1orf63 / RFU, LRRFIP1 / Fold change vs veh, LRRFIP1 / RFU, NDUFAF7 / Fold change vs veh, NDUFAF7 / RFU, SLC12A2 / Fold change vs veh, SLC12A2 / RFU, IBTK / Fold change vs veh, IBTK / RFU, ESF1 / Fold change vs veh, ESF1 / Fold change vs veh, TMEM50B / RFU, TAOK1 / Fold change vs veh, TAOK1 / RFU, ACBD3 / Fold change vs veh, ACBD3 / RFU, TMA16 / Fold change vs veh, TMA16 / RFU, RWDD3 / Fold change vs veh, RWDD3 / RFU, BCAT1 / Fold change vs veh, BCAT1 / RFU, EDEM3 / Fold change vs veh, EDEM3 / RFU, TMEM33 / Fold change vs veh, TMEM33 / RFU, WDR75 / Fold change vs veh, WDR75 / RFU, AHCTF1 / Fold change vs veh, AHCTF1 / RFU, TFRC / Fold change vs veh, TFRC / RFU, ZDHHC17 / Fold change vs veh, ZDHHC17 / RFU, NOM1 / Fold change vs veh, NOM1 / RFU, ARL8B / Fold change vs veh, ARL8B / RFU, ZBTB11 / Fold change vs veh, ZBTB11 / RFU, TAMM41 / Fold change vs veh, TAMM41 / RFU, KIAA1704 /// LOC100996395 / Fold change vs veh, KIAA1704 /// LOC100996395 / RFU, ING1 / Fold change vs veh, ING1 / RFU, TRMT61B / Fold change vs veh, TRMT61B / RFU, FUBP3 / Fold change vs veh, FUBP3 / RFU, TP53 / Fold change vs veh, TP53 / RFU, TNKS2 / Fold change vs veh, TNKS2 / RFU, ZFP14 / Fold change vs veh, ZFP14 / RFU, ACTR2 / Fold change vs veh, ACTR2 / RFU, PPP3R1 / Fold change vs veh, PPP3R1 / RFU, PIK3R1 / Fold change vs veh, PIK3R1 / RFU, HNRNPA1 / Fold change vs veh, HNRNPA1 / RFU, RNF170 / Fold change vs veh, RNF170 / RFU, ZNF28 / Fold change vs veh, ZNF28 / RFU, RNGTT / Fold change vs veh, RNGTT / RFU, OGT / Fold change vs veh, OGT / RFU, BRD1 / Fold change vs veh, BRD1 / RFU, MARS / Fold change vs veh, MARS / RFU, ZNF655 / Fold change vs veh, ZNF655 / RFU, FAHD1 / Fold change vs veh, FAHD1 / RFU, BDP1 / Fold change vs veh, BDP1 / RFU, LRRCC1 / Fold change vs veh, LRRCC1 / RFU, ARID1A / Fold change vs veh, ARID1A / RFU, ZNF146 / Fold change vs veh, ZNF146 / RFU, ZNF330 / Fold change vs veh, ZNF330 / RFU, GPN3 / Fold change vs veh, GPN3 / RFU, C9orf123 / Fold change vs veh, C9orf123 / RFU, N4BP2L2 / Fold change vs veh, N4BP2L2 / RFU, ARFIP1 / Fold change vs veh, ARFIP1 / RFU, FAM179B / Fold change vs veh, FAM179B / RFU, BCL10 / Fold change vs veh, BCL10 / RFU, UHRF1BP1L / Fold change vs veh, UHRF1BP1L / RFU, BET1 / Fold change vs veh, BET1 / RFU, CNOT2 / Fold change vs veh, CNOT2 / RFU, ZNF268 / Fold change vs veh, ZNF268 / Fold change vs veh, ZNF507 / RFU, DGCR2 / Fold change vs veh, DGCR2 / RFU, WDSUB1 / Fold change vs veh, WDSUB1 / Fold change vs veh, HSP90B1 /// MIR3652 / RFU, ADSS / Fold change vs veh, ADSS / RFU, GK / Fold change vs veh, GK / RFU, ZNF148 / Fold change vs veh, ZNF148 / RFU, TAF9 / Fold change vs veh, TAF9 / RFU, SLC1A5 / Fold change vs veh, SLC1A5 / RFU, SLMO2 / Fold change vs veh, SLMO2 / RFU, ABCC4 / Fold change vs veh, ABCC4 / RFU, LOC101060439 /// RAP1B / Fold change vs veh, LOC101060439 /// RAP1B / RFU, RFX7 / Fold change vs veh, RFX7 / RFU, GTPBP10 / Fold change vs veh, GTPBP10 / RFU, CNEP1R1 / Fold change vs veh, CNEP1R1 / RFU, BIVM-ERCC5 /// ERCC5 / Fold change vs veh, BIVM-ERCC5 /// ERCC5 / RFU, ILF3 / Fold change vs veh, ILF3 / RFU 11762660_at / Fold change /veh 11762660_at / RFU VCAN (11757783_s_at) / Fold change /veh VCAN (11757783_s_at) / RFU DDX43 (11728927_at) / Fold change /veh DDX43 (11728927_at) / RFU KRT8 (11758188_x_at) / Fold change /veh KRT8 (11758188_x_at) / RFU NKD1 (11759106_at) / Fold change /veh NKD1 (11759106_at) / RFU SRD5A1 (11742802_a_at) / Fold change /veh SRD5A1 (11742802_a_at) / RFU TPSAB1 /// TPSB2 (11721975_s_at) / Fold change /veh TPSAB1 /// TPSB2 (11721975_s_at) / RFU GSTM3 (11746129_a_at) / Fold change /veh GSTM3 (11746129_a_at) / RFU IL23R (11737362_x_at) / Fold change /veh IL23R (11737362_x_at) / RFU TMEM51 (11727254_a_at) / Fold change /veh TMEM51 (11727254_a_at) / RFU PIWIL2 (11732686_x_at) / Fold change /veh PIWIL2 (11732686_x_at) / RFU ORM1 (11744905_x_at) / Fold change /veh ORM1 (11744905_x_at) / RFU CCDC152 (11743942_at) / Fold change /veh CCDC152 (11743942_at) / RFU ECM1 (11717891_a_at) / Fold change /veh ECM1 (11717891_a_at) / RFU IL23R (11748794_a_at) / Fold change /veh IL23R (11748794_a_at) / RFU TNFAIP8L3 (11732012_x_at) / Fold change /veh TNFAIP8L3 (11732012_x_at) / RFU MBOAT4 (11741988_at) / Fold change /veh MBOAT4 (11741988_at) / RFU 11764193_at / Fold change /veh 11764193_at / RFU TMEM53 (11763286_at) / Fold change /veh TMEM53 (11763286_at) / RFU MAGEB2 (11727129_at) / Fold change /veh MAGEB2 (11727129_at) / RFU TMEM200A (11744735_a_at) / Fold change /veh TMEM200A (11744735_a_at) / RFU CCDC152 (11751479_a_at) / Fold change /veh CCDC152 (11751479_a_at) / RFU FAM211A (11726209_a_at) / Fold change /veh FAM211A (11726209_a_at) / RFU RGS16 (11746705_a_at) / Fold change /veh RGS16 (11746705_a_at) / RFU VCAN (11755009_s_at) / Fold change /veh VCAN (11755009_s_at) / RFU RHOB (11743442_s_at) / Fold change /veh RHOB (11743442_s_at) / RFU RGS16 (11720943_a_at) / Fold change /veh RGS16 (11720943_a_at) / RFU RGS16 (11720944_at) / Fold change /veh RGS16 (11720944_at) / RFU, VPS4B / Fold change vs veh, VPS4B / RFU, CREB1 / Fold change vs veh, CREB1 / RFU, DNAJC13 / Fold change vs veh, DNAJC13 / RFU, GNAQ / Fold change vs veh, GNAQ / RFU, CDK5R1 / Fold change vs veh, CDK5R1 / RFU, ZRANB3 / Fold change vs veh, ZRANB3 / RFU, CUL4A / Fold change vs veh, CUL4A / RFU, CCNY / Fold change vs veh, CCNY / RFU, UFL1 / Fold change vs veh, UFL1 / RFU, COG3 / Fold change vs veh, COG3 / RFU, DIAPH2 / Fold change vs veh, DIAPH2 / RFU, SKA2 / Fold change vs veh, SKA2 / RFU, AFF3 / Fold change vs veh, AFF3 / RFU, LMF1 / Fold change vs veh, LMF1 / RFU, IPO11 / Fold change vs veh, IPO11 / RFU, DFFB / Fold change vs veh, DFFB / RFU, FOXP1 / Fold change vs veh, FOXP1 / RFU, CARD8 / Fold change vs veh, CARD8 / RFU, STRN3 / Fold change vs veh, STRN3 / RFU, ADK / Fold change vs veh, ADK / RFU, RASSF2 / Fold change vs veh, RASSF2 / RFU, WIPF1 / Fold change vs veh, WIPF1 / RFU, LARP1B / Fold change vs veh, LARP1B / RFU, RASA1 / Fold change vs veh, RASA1 / RFU, RB1 / Fold change vs veh, RB1 / RFU, PPFIA1 / Fold change vs veh, PPFIA1 / RFU, MAT2A / Fold change vs veh, MAT2A / RFU, CCT5 / Fold change vs veh, CCT5 / RFU, WDR92 / Fold change vs veh, WDR92 / RFU, CUX1 / Fold change vs veh, CUX1 / RFU, TTC7A / Fold change vs veh, TTC7A / RFU, TMEM135 / Fold change vs veh, TMEM135 / RFU, DEPTOR / Fold change vs veh, DEPTOR / RFU, CPM / Fold change vs veh, CPM / RFU, DNAJB6 / Fold change vs veh, DNAJB6 / RFU, CACNA2D3 / Fold change vs veh, CACNA2D3 / RFU, DTX4 / Fold change vs veh, DTX4 / RFU, TFCP2 / Fold change vs veh, TFCP2 / RFU, GMCL1 /// GMCL1P1 / Fold change vs veh, GMCL1 /// GMCL1P1 / RFU, AEBP2 / Fold change vs veh, AEBP2 / RFU, SNHG1 /// SNORD22 /// SNORD25 /// SNORD26 /// SNORD27 /// SNORD28 /// SNORD29 /// SNORD31 / Fold change vs veh, SNHG1 /// SNORD22 /// SNORD25 /// SNORD26 /// SNORD27 /// SNORD28 /// SNORD29 /// SNORD31 / Fold change (Aza/veh), C12orf56 (ProbeSet 11735607_a_at) / Fold change (ACY-1035/veh), C12orf56 (ProbeSet 11735607_a_at) / Fold change (Aza/veh), FGFR1OP (ProbeSet 11751329_s_at) / Fold change (ACY-1035/veh), FGFR1OP (ProbeSet 11751329_s_at) / Fold change (Aza/veh), VPS36 (ProbeSet 11739960_a_at) / Fold change (ACY-1035/veh), VPS36 (ProbeSet 11739960_a_at) / RFU SYPL1 (11715823_x_at) / Fold change /veh SYPL1 (11715823_x_at) / RFU IGFBP7 (11715501_s_at) / Fold change /veh IGFBP7 (11715501_s_at) / RFU REEP3 (11722064_at) / Fold change /veh REEP3 (11722064_at) / RFU IGLL1 (11728026_x_at) / Fold change /veh IGLL1 (11728026_x_at): dose or concentration left out as unconfirmed", "conditions": "ProbeSet 11745260_x_at; LIST B", "data": [{"smiles": "Nc1ccc(-c2cccs2)cc1NC(=O)c1ccc2c(c1)cc(C1CC1)n2CCN1CCOCC1", "note": "[ACY-1035]", "values": [{"measurement": "Fold change vs veh, SLC12A2", "value": 0.87}]}]}
